The target in test [1] is T1, wild type HCV NS3/4A 1b protease enzyme (Hepatitis C virus genotype 1b, UniProt P26663).
T1 construct: 10× stocks of NS3/4A protease enzyme from Bioenza (Mountain View, Calif.); purchased Bioenza (Mountain View, Calif.)
The experiment in a line: HCV Protease FRET Assay (IC50_APP), wild type. The test is classed as biochemical.

The target of test [2] is T2, HCV NS3/4A wild type (genotype 1b) (Hepatitis C virus genotype 1b, UniProt P26663).
T2 construct: mass spectroscopic analysis of HCV NS3/4A wild-type protease domain; purchased Bioenza Calif
The experiment in a line: Mass spectrometric analysis (MALDI-TOF) of covalent modification, HCV wild type. The test is classed as binding. The note with it: 10-fold excess of compound to protein, 1 hr. The procedure:
Mass spectrometric analysis of HCV wild type or HCV variant C159S in the presence of test compound was performed. 100 pmols of HCV wild type (Bioenza Calif.) was incubated with compound for 1 hr and 3 hrs at 10-fold access of […] to protein. 1 ul aliquots of the samples (total volume of 4.24 ul) were diluted with 10 ul of 0.1% TFA prior to micro C4 ZipTipping directly onto the MALDI target using Sinapinic acid as the desorption matrix (10 mg/ml in 01% TFA:Acetonitrile 50:50). Analyses were performed on a Shimadzu Biotech Axima TOF^2 (Shimadzu Instruments) matrix-assisted-laser desorption/ionization Time-of-Flight (MALDI-TOF) mass spectrometer. The same procedure was carried out on 100 pmols of HCV C159S mutant of HCV protease for 3 hrs at 10-fold excess of (I-3) to protein.
As depicted in FIGS. 2, 3, 4, and 5, mass spectrometric analysis of HCV wild type or HCV mutants in the presence of test compound (I-3) was performed. […] 1 ul aliquots of the samples were diluted with 10 ul of 0.1% TFA prior to micro C4 ZipTipping directly onto the MALDI target using Sinapinic acid as the desorption matrix (10 mg/ml in 0.1% TFA:Acetonitrile 50:50).
Mass spectrometric analysis of HCV wild type (genotype 1b) in the presence of test compounds I-73 and I-75 was performed using the following protocol: HCV NS3/4A wild type (wt) was incubated for 1 hr at a 10× fold access of test compound to protein. 2 ul aliquots of the samples were diluted with 10 ul of 0.1% TFA prior to micro C4 ZipTipping directly onto the MALDI target using Sinapinic acid as the desorption matrix (10 mg/ml in 0.1% TFA:Acetonitrile 50:50). For intact protein mass measurement the instrument was set in Linear mode using a pulsed extraction setting of 24,500 and apomyoglobin as the standard to calibrate the instrument.
Mass spectrometric analysis of HCV NS3/4A genotypes 1a, 1b, 2a, and 3a in the presence of test compound I-96 was performed using the following protocol: HCV NS3/4A was incubated for 3 hr at a 10× fold access of test compound to protein. […]

Test [3] addresses T3, D168A mutant of the HCV NS3/4A 1b protease enzyme (Hepatitis C virus genotype 1b, UniProt P26663, D1194A).
T3 construct: 10× stocks of NS3/4A protease enzyme from Bioenza (Mountain View, Calif.); purchased Bioenza (Mountain View, Calif.)
Description: HCV Protease FRET Assay (IC50_APP), D168A mutant. The note with it: apparent IC50, D168A mutant; read-out: IC50_APP, HCV D168A. Format: biochemical.

Test [4] relates to HCV RNA replicon in cell line ET (luc-ubi-neo/ET), human Huh7 hepatoma. Description: Method A: HCV RNA replicon antiviral assay (luciferase, ET cell line). The test is classed as cell-based, Hepatitis C virus. The following applies: Hepatitis C virus, Huh-7, assay described in Example 22. A digest of the protocol: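 ET replicon cells (Huh7 carrying luciferase-reporter HCV replicon) plated at 5×10^3 cells/well and exposed 72 hr to six 3-fold drug concentrations in DMEM/5% FBS. Replicon luciferase gave EC50/EC90; CytoTox-1 cell counts gave IC50 (viability); […]. Interferon alpha-2b served as positive control.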
For orientation: A replicon is a self-replicating genome or part of one, used to study replication in cells.

Test [5] addresses T4, A156T mutant of the HCV NS3/4A 1b protease enzyme (Hepatitis C virus genotype 1b, UniProt P26663, A1182T).
T4 construct: 10× stocks of NS3/4A protease enzyme from Bioenza (Mountain View, Calif.); purchased Bioenza (Mountain View, Calif.)
The experiment in a line: HCV Protease FRET Assay (IC50_APP), A156T mutant. Format: biochemical. The following applies: apparent IC50, A156T mutant; read-out: IC50_APP, HCV A156T.

Test [6] deals with HCV RNA replicon in cell line ET (luc-ubi-neo/ET), human Huh7 hepatoma. The experiment in a line: Luciferase Assay (Example 35), replicon-derived luciferase activity. Format: cell-based. The note with it: Hepatitis C virus, Huh-7; assay described in Example 35. The procedure: The compounds were assayed to evaluate the antiviral activity and cytotoxicity of compounds using replicon-derived luciferase activity. This assay used the cell line ET (luc-ubi-neo/ET), which is a human Huh7 hepatoma cell line that contains an HCV RNA replicon with a stable luciferase (Luc) reporter and cell culture-adaptive mutations. The ET cell line was grown in a 5% CO2 incubator at 37° C. in Dulbecco's modified essential media (DMEM) supplemented with 2 mM L-glutamine, nonessential amino acids, 100 U of penicillin/ml, 100 μg of streptomycin/mL, and 10% fetal bovine serum. G418 (Geneticin; Invitrogen) was added at a final concentration of 400 ug//mL.
All cell culture reagents were obtained from Invitrogen (Carlsbad). Cells were trypsinized (1% trypsin:EDTA) and plated out at 5×10^3 cells/well in white 96-well assay plates (Costar) dedicated to cell number (cytotoxicity) or antiviral activity assessments. Test compounds were added at six 3-fold concentrations each and the assay was run in DMEM, 5% FBS, 1% pen-strep, 1% glutamine, 1% non essential amino acid. Human interferon alpha-2b (PBL Biolabs, New Brunswick, N.J.) was included in each run as a positive control compound. Cells were processed 72 hr post test compound addition when the cells were still subconfluent. Antiviral activity was measured by analyzing replicon-derived luciferase activity using the Steady-Glo Luciferase Assay System (Promega, Madison, Wis.) according to manufacturer's instruction. The number of cells in each well was determined by Cell Titer Blue Assay (Promega). Compound profile was derived by calculating applicable EC50 (effective concentration inhibiting virus replication by 50%), EC90 (effective concentration inhibiting virus replication by 90%), IC50 (concentration decreasing cell viability by 50%) and SI50 (selective index: […]) values.

Test [7] deals with T5, C159S mutant of the HCV NS3/4A 1b protease enzyme (Hepatitis C virus genotype 1b, UniProt P26663, C1185S).
T5 construct: 10× stocks of NS3/4A protease enzyme from Bioenza (Mountain View, Calif.); purchased Bioenza (Mountain View, Calif.)
Description: HCV Protease FRET Assay (IC50_APP), C159S mutant. The test is classed as biochemical. The note with it: apparent IC50, C159S mutant. The procedure:
HCV Protease FRET Assay for WT and Mutated NS3/4A 1b Enzymes (IC50—APP).
The following protocol was used to generate “apparent” IC50 (IC50—APP) values as depicted in Table 6, below. […] 5 μL of each enzyme were added to Corning (#3575) 384-well, black, microtiter plates (Corning, N.Y.) after spotting a 0.5 μL volume of 50% DMSO and serially diluted compounds prepared in 50% DMSO. Protease reactions were immediately started after enzyme addition with the addition of 45 μL of the FRET substrate and monitored for 60-90 minutes at λex485/λem520 in a Synergy^4 plate reader from BioTek (Winooski, Vt.). At the conclusion of each assay, progress curves from each well were examined for linear reaction kinetics and fit statistics (R^2, 95% confidence intervals, absolute sum of squares).
The compound numbers correspond to the compound numbers in Table 3. […] ;

For test [8], the target named is T6, R155K mutant of the HCV NS3/4A 1b protease enzyme (Hepatitis C virus genotype 1b, UniProt P26663, R1181K).
T6 construct: 10× stocks of NS3/4A protease enzyme from Bioenza (Mountain View, Calif.); purchased Bioenza (Mountain View, Calif.)
The experiment in a line: HCV Protease FRET Assay (IC50_APP), R155K mutant. Format: biochemical. The following applies: apparent IC50, R155K mutant; read-out: IC50_APP, HCV R155K.

[9] abbreviates: read-out: IC50_APP, WT, apparent IC50, wild type NS3/4A 1b.

Read-outs that look alike come from different tables or passages of the source.

From patent US8309685B2 (Celgene Avilomics Research, Inc., priority 2007, dated 2012) come the findings set out here.

On to `C=C[C@@H]1C[C@]1(NC(=O)[C@@H]1C[C@@H](Oc2cc(-c3ccccc3)nc3cc(OC)ccc23)CN1C(=O)[C@@H](NC(=O)OC(C)(C)C)[C@@H](C)OC(=O)/C=C/C)C(=O)NS(=O)(=O)C1CC1` [Compound I-50, (E)-((2R,3S)-3-(tert-butoxycarbonylamino)-4-((2S,4R)-2-((1R,2S)-1-(cyclopropylsulfonylcarbamoyl)-2-vinylcyclopropylcarbamoyl)-4-(7-methoxy-2-phenylquinolin-4-yloxy)pyrrolidin-1-yl)-4-oxobutan-2-yl)but-2-enoate], for which the IC50 in test [1] is under 10 nM; in test [3], 100 to 1000 nM; in test [4] (read-out: Replicon (IC50)) it was under 10 nM; in test [5] it was 100 to 1000 nM. Besides, the “Covalent modification of HCV wild type by mass spectrometry” value in test [2] is listed as “measurable covalent modification”. Also, the IC90 (usually the concentration needed for an effect of 90%) in test [4] (IC90) was under 10 nM.

In the case of `C=CC(=O)N[C@H](CC(C)C)C(=O)N1C[C@H](Oc2nccc3cc(OC)ccc23)C[C@H]1C(=O)N[C@]1(C(=O)NS(=O)(=O)C2CC2)C[C@H]1C=C` [Compound I-105], the concentration for a half-maximal effect (EC50) (in general, the concentration that produces a half-maximal response) in test [6] fell in the range of 10 to 100 nM. Further, the IC50 in test [1] (setting [9]) was under 10 nM; in test [3], 100 to 1000 nM; in test [7], 100 to 1000 nM; in test [8] it was 10 to 100 nM; in test [5] it was under 10 nM.

`C=CC(=O)N[C@H](Cc1ccccc1)C(=O)N1C[C@H](Oc2nccc3cc(OC)ccc23)C[C@H]1C(=O)N[C@]1(C(=O)NS(=O)(=O)C2CC2)C[C@H]1C=C` [Compound I-106]: the 50% effective concentration (EC50) in test [6] lay within 10 to 100 nM. Moreover, the IC50 in test [1] (setting [9]) was under 10 nM; in test [3] it was 100 to 1000 nM; in test [7], 100 to 1000 nM; in test [8], 10 to 100 nM; in test [5], under 10 nM.

`C=CC1CC1(NC(=O)C1CC(n2nnc(-c3ccc(OC)cc3)n2)CN1C(=O)C(CCC(=O)C=C(C)C)NC(=O)OC(C)(C)C)C(=O)NS(=O)(=O)C1CC1` (centres unmarked) [Compound I-107]: in test [6], the EC50 was in the range of 100 to 1000 nM. The IC50 in test [1] (setting [9]) is under 10 nM; in test [3], 1000 to 10000 nM; in test [7], 10 to 100 nM; in test [8] it was 1000 to 10000 nM.

`C=CC(=O)NCC(NC(=O)OC(C)(C)C)C(=O)N1CC(n2nnc(-c3ccc(OC)cc3)n2)CC1C(=O)NC1(C(=O)NS(=O)(=O)C2CC2)CC1C=C` (centres unmarked) [Compound I-108] had an EC50 in test [6] of 100 to 1000 nM. The IC50 in test [1] (setting [9]) is under 10 nM; in test [3], 1000 to 10000 nM; in test [7] it was 100 to 1000 nM; in test [8], 1000 to 10000 nM.

For the compound `C=CC(=O)NC[C@H](NC(=O)OC(C)(C)C)C(=O)N1C[C@H](Oc2nc3ccccc3nc2-c2cccs2)C[C@H]1C(=O)N[C@]1(C(=O)NS(=O)(=O)C2CC2)C[C@H]1C=C` [Compound I-109], in test [6], the EC50 lay within 100 to 1000 nM. Moreover, the IC50 is under 10 nM in test [1] (setting [9]), 1000 to 10000 nM in test [3], 100 to 1000 nM in test [7] and 100 to 1000 nM in test [8].

Turning to `C=C[C@@H]1C[C@]1(NC(=O)[C@@H]1C[C@@H](Oc2nc3ccccc3nc2-c2cccs2)CN1C(=O)[C@H](CCC(=O)C=C(C)C)NC(=O)OC(C)(C)C)C(=O)NS(=O)(=O)C1CC1` [Compound I-110], the half-maximal effective concentration (EC50) in test [6] was in the range of 10 to 100 nM. Also, the IC50 in test [1] (setting [9]) was under 10 nM; in test [3], 1000 to 10000 nM; in test [7] it was 10 to 100 nM; in test [8] it was 100 to 1000 nM.
